Results: PubChem BioAssay AID256 (DTP/NCI, 2004)
Where “and” joins values, the source holds several entries; their conditions need not be identical. Equal entries are not always repeated. Inconclusive results and toxic doses are left out. How the source made its calls: active means survival T/C of 150% or more; inactive means T/C below 125% in these data.

Tested on: CD2F1 mice, L1210 leukemia ip, survival T/C
Assay: NCI In Vivo Anticancer Drug Screen. Data for tumor model L1210 Leukemia (intraperitoneal) in CD2F1 (CDF1) mice
Details: higher = longer survival
Procedure, shortened: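 Mice carrying a transplanted tumor received test compound or vehicle alone. The value is the measurement in the treated group divided by that in the vehicle-treated control group.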

[1] = endpoint: mean survival time, dose: 100.0 mg/kg/injection, schedule: Q01DX009 (ip), vehicle: saline with Tween-80
[2] = endpoint: mean survival time, dose: 100.0 mg/kg/injection, schedule: Q04DX003 (ip), vehicle: saline with Tween-80
[3] = endpoint: mean survival time, dose: 200.0 mg/kg/injection, schedule: Q01DX009 (ip), vehicle: saline with Tween-80
[4] = endpoint: mean survival time, dose: 200.0 mg/kg/injection, schedule: Q04DX003 (ip), vehicle: saline with Tween-80
[5] = endpoint: mean survival time, dose: 400.0 mg/kg/injection, schedule: Q04DX003 (ip), vehicle: saline with Tween-80
[6] = endpoint: mean survival time, dose: 400.0 mg/kg/injection, schedule: Q01DX009 (ip), vehicle: saline with Tween-80

Measured: T/C

C[S+](C)CCC(N)C(=O)O (stereo not drawn) (tested in a mixture with another compound)
inactive: endpoint: median survival time, dose: 3.13 mg/kg/injection, schedule: Q04DX002 (ip), vehicle: saline 111 % of control | endpoint: median survival time, dose: 6.25 mg/kg/injection, schedule: Q04DX002 (ip), vehicle: saline 111 % of control | endpoint: median survival time, dose: 12.5 mg/kg/injection, schedule: Q04DX002 (ip), vehicle: saline 111 % of control | endpoint: median survival time, dose: 25.0 mg/kg/injection, schedule: Q04DX002 (ip), vehicle: saline 111 % of control and 108 % of control | endpoint: median survival time, dose: 50.0 mg/kg/injection, schedule: Q04DX002 (ip), vehicle: saline 111 % of control and 94 % of control | endpoint: median survival time, dose: 100.0 mg/kg/injection, schedule: Q04DX002 (ip), vehicle: saline 117 % of control and 100 % of control | endpoint: median survival time, dose: 400.0 mg/kg/injection, schedule: Q04DX002 (ip), vehicle: saline 100 % of control

Cc1ccc(C(=O)OCCN2CCOCC2)c([N+](=O)[O-])c1OCc1ccccc1
inactive: endpoint: mean survival time, dose: 100.0 mg/kg/injection, schedule: Q04DX002 (ip), vehicle: other 94 % of control | endpoint: mean survival time, dose: 200.0 mg/kg/injection, schedule: Q04DX002 (ip), vehicle: other 103 % of control | endpoint: mean survival time, dose: 400.0 mg/kg/injection, schedule: Q04DX002 (ip), vehicle: other 91 % of control

CCn1c(C)nc2cc(C(N)=O)ccc21
inactive: [1] 97 % of control | [2] 100 % of control | [3] 91 % of control | [4] 96 % of control | [5] 102 % of control

OC(c1ccccc1)(c1ccc(-c2ccccc2)cc1)C(O)(c1ccccc1)c1ccc(-c2ccccc2)cc1 (stereo not drawn)
inactive: endpoint: mean survival time, dose: 25.0 mg/kg/injection, schedule: Q04DX003 (ip), vehicle: saline with Tween-80 96 % of control | endpoint: mean survival time, dose: 50.0 mg/kg/injection, schedule: Q04DX003 (ip), vehicle: saline with Tween-80 90 % of control | [2] 90 % of control and 100 % of control | [4] 92 % of control | [5] 92 % of control

CCOC(=O)C(C=O)(NC(=O)c1ccccc1)OCC (stereo not drawn)
inactive: [1] 100 % of control | [3] 105 % of control | [6] 96 % of control

Cc1nccn1C(C)c1ccccc1 (stereo not drawn)
inactive: endpoint: mean survival time, dose: 10.0 mg/kg/injection, schedule: Q04DX003 (ip), vehicle: saline 105 % of control | endpoint: mean survival time, dose: 20.0 mg/kg/injection, schedule: Q04DX003 (ip), vehicle: saline 94 % of control | endpoint: mean survival time, dose: 40.0 mg/kg/injection, schedule: Q04DX003 (ip), vehicle: saline 92 % of control

COC(=O)c1nc2ccccc2nc1C(=O)OC
inactive: [1] 103 % of control | [2] 100 % of control | [3] 103 % of control | [4] 94 % of control | [6] 102 % of control | [5] 96 % of control

C[N+](C)(C)CCCNC(=O)Nc1ccc(Cl)cc1
inactive: endpoint: mean survival time, dose: 6.25 mg/kg/injection, schedule: Q04DX002 (ip), vehicle: saline 106 % of control | endpoint: mean survival time, dose: 25.0 mg/kg/injection, schedule: Q04DX002 (ip), vehicle: saline 100 % of control

NCCS[As](=O)(O)SCCN
inactive: endpoint: mean survival time, dose: 12.5 mg/kg/injection, schedule: Q01DX009 (ip), vehicle: saline with Tween-80 97 % of control | endpoint: mean survival time, dose: 12.5 mg/kg/injection, schedule: Q04DX003 (ip), vehicle: saline 101 % of control | endpoint: mean survival time, dose: 25.0 mg/kg/injection, schedule: Q01DX009 (ip), vehicle: saline with Tween-80 103 % of control | endpoint: mean survival time, dose: 25.0 mg/kg/injection, schedule: Q04DX003 (ip), vehicle: saline 98 % of control | endpoint: mean survival time, dose: 50.0 mg/kg/injection, schedule: Q01DX009 (ip), vehicle: saline with Tween-80 94 % of control | endpoint: mean survival time, dose: 50.0 mg/kg/injection, schedule: Q04DX003 (ip), vehicle: saline 101 % of control

COC(=O)C1CCCC(=O)C1C(=O)OC (stereo not drawn)
inactive: endpoint: mean survival time, dose: 100.0 mg/kg/injection, schedule: Q01DX009 (ip), vehicle: other 95 % of control | endpoint: mean survival time, dose: 200.0 mg/kg/injection, schedule: Q01DX009 (ip), vehicle: other 101 % of control | endpoint: mean survival time, dose: 400.0 mg/kg/injection, schedule: Q01DX009 (ip), vehicle: other 92 % of control

Cc1cccc(CC(F)(F)F)c1
inactive: [2] 102 % of control | [4] 100 % of control | [5] 89 % of control

Nc1cnc(/C=C/c2ccccc2)nc1
inactive: endpoint: mean survival time, dose: 75.0 mg/kg/injection, schedule: Q01DX001 (ip), vehicle: other 104 % of control | endpoint: mean survival time, dose: 150.0 mg/kg/injection, schedule: Q01DX001 (ip), vehicle: other 102 % of control
